This data set in a line: Solubility check: surface profile of coated fluoropolymer film observed by optical microscope. It counts as physicochemical. To be noted: for Solubility: 0.3 wt % with respect to Cytop CTL-809M in perfluorotributylamine/1,1,1,3,3,3-hexafluoropropan-2-ol/Cytop CTL-809M=90/5/5 (parts by weight), applied onto glass substrate, 2 μm film, dried; for Solubility / compatibility with resin: same test as Table 1, coated Cytop CTL-809M film. The method, then: To a mixed solution of perfluorotributylamine/1,1,1,3,3,3-hexafluoropropan-2-ol/Cytop CTL-809M (manufactured by Asahi Glass Co., Ltd.)=90/5/5 (parts by weight), was added the compound represented by formula (1) according to the invention (any of Compounds 1-1 to 1-8) or any of Comparative Compounds C-1 to C-3 as shown below in an amount of 0.3 wt % with respect to the Cytop CTL-809M. Thereafter, the mixed solution was applied onto a glass substrate to a film thickness of 2 μm and dried.

`O=C(CCSc1nnc(S)s1)OCCC(F)(F)C(F)(F)C(F)(F)C(F)(F)C(F)(C(F)(F)F)C(F)(F)F` [Compound 1-1]: the Solubility result is “Compatible”.

With `CC(CSc1nnc(S)s1)C(=O)OCCC(F)(F)C(F)(F)C(F)(F)C(F)(F)C(F)(C(F)(F)F)C(F)(F)F` (centres unmarked) [Compound 1-2], the Solubility entry is reported as “Compatible”.

As for `O=C(CCSc1nnc(S)s1)OCCC(F)(F)C(F)(F)C(F)(C(F)(F)F)C(F)(F)F` [Compound 1-3], the Solubility result was “Compatible”. On the same count and under the same terms, the result for `O=C(CCSc1nnc(S)s1)OCCC(F)(F)C(F)(F)C(F)(F)C(F)(F)C(F)(F)C(F)(F)C(F)(C(F)(F)F)C(F)(F)F` [Compound 1-4] reads “Compatible”; that for `O=C(CSc1nnc(S)s1)OCCC(F)(F)C(F)(F)C(F)(F)C(F)(F)C(F)(C(F)(F)F)C(F)(F)F` [Compound 1-5], “Compatible”.

On to `O=C(CCSc1nnc(S)s1)OCC(F)(F)C(F)(F)C(F)(F)C(F)(F)C(F)(C(F)(F)F)C(F)(F)F` [Compound 1-6], for which the Solubility entry is reported as “Compatible”. As to `O=C(CCSc1nnc(S)s1)OCCCC(F)(F)C(F)(F)C(F)(F)C(F)(F)C(F)(C(F)(F)F)C(F)(F)F` [Compound 1-7], the Solubility entry was “Compatible”. Still for that read-out and setting: the result for `O=C(CCSc1nnc(S)s1)OCC(F)(F)C(F)(C(F)(F)C(F)(F)F)C(F)(F)C(F)(F)C(F)(F)C(F)(F)F` (centres unmarked) [Compound 1-8] reads “Compatible”. For the compound `CC(C)CCCCCCOC(=O)CCSc1nnc(S)s1` [Compound C-1, reference compound], the Solubility entry is given as “Remain partially” and the “Solubility / compatibility with resin” value is listed as “remained partially undissolved”.

Take `O=C(CSc1nnc(S)s1)OCCC(F)(F)C(F)(F)C(F)(F)C(F)(F)F` [Compound C-2, reference compound]: the Solubility result was “Bleed out (compounds which bleed out are denoted by “Bleed out,”)” and the “Solubility / compatibility with resin” value is on record as “bled out on the resin surface”. The corresponding values for `O=C(CSc1nnc(S)s1)OCCC(F)(F)C(F)(F)C(F)(F)C(F)(F)C(F)(F)C(F)(F)C(F)(F)F` [Compound C-3, reference compound] are “Bleed out slightly” and “bled out on the resin surface”.

The values are drawn from patent US9255077B2, “Fluorine atom-containing mercapto compound” (FUJIFILM CORPORATION, priority 2012, dated 2016).
